According to ChEMBL document CHEMBL1158536, “How well can the Caco-2/Madin-Darby canine kidney models predict effective human jejunal permeability?” (J Med Chem, 2010):

Legend:
[1] = Absolute bioavailability in human; type: ADME, organism-based; details: in vivo
[2] = Dissociation constant, pKa of the compound; type: physicochemical
[3] = Octanol-water partition coefficient, log P of the compound; type: physicochemical
[4] = caco-2
[5] = clinical; details: human

O=c1c(O[C@@H]2O[C@H](CO)[C@@H](O)[C@H](O)[C@H]2O)c(-c2ccc(O[C@@H]3O[C@H](CO)[C@@H](O)[C@H](O)[C@H]3O)c(O)c2)oc2cc(O)cc(O)c12
bioavailability [1]: 60%
pKa [2]: 6.9
logP ([3]; read-out: logP): 3.24
Daq [4]: 6.1 ×10⁻⁶ cm2/s
Papp [5]: 890 ×10⁻⁶ cm/s

CCOC(=O)[C@H](CCc1ccccc1)N[C@@H](C)C(=O)N1CCC[C@H]1C(=O)O
bioavailability [1]: 51%
pKa [2]: 2.92
logP ([3]; read-out: logP): -1.39
Daq [4]: 6.7 ×10⁻⁶ cm2/s
Papp [5]: 157 ×10⁻⁶ cm/s

COc1ccc(CCN(C)CCCC(C#N)(c2ccc(OC)c(OC)c2)C(C)C)cc1OC (stereo not drawn)
bioavailability [1]: 84%

N=C(N)NC(=O)c1nc(Cl)c(N)nc1N [AMILORIDE]
bioavailability [1]: 50%
logP ([3]; read-out: logP): -0.26
Daq [4]: 8.4 ×10⁻⁶ cm2/s
Papp [5]: 163 ×10⁻⁶ cm/s

CC1(C)S[C@@H]2[C@H](NC(=O)[C@H](N)c3ccc(O)cc3)C(=O)N2[C@H]1C(=O)O [AMOXICILLIN]
bioavailability [1]: 45%
Daq [4]: 6.8 ×10⁻⁶ cm2/s
Papp [5]: 30 ×10⁻⁶ cm/s

CC(C)NCC(O)COc1ccc(CC(N)=O)cc1 (stereo not drawn) [ATENOLOL]
Daq [4]: 7.9 ×10⁻⁶ cm2/s

NC(CO)C(=O)NNCc1ccc(O)c(O)c1O (stereo not drawn) [BENSERAZIDE]
bioavailability [1]: 70%
pKa [2]: 6.19
logP ([3]; read-out: logP): -1.78
Daq [4]: 8 ×10⁻⁶ cm2/s
Papp [5]: 290 ×10⁻⁶ cm/s

Cn1c(=O)c2c(ncn2C)n(C)c1=O [CAFFEINE]
bioavailability [1]: 98%

NC(=O)N1c2ccccc2C=Cc2ccccc21 [CARBAMAZEPINE]
bioavailability [1]: 90%
Daq [4]: 8.3 ×10⁻⁶ cm2/s
Papp [5]: 430 ×10⁻⁶ cm/s

CC1=C(C(=O)O)N2C(=O)[C@@H](NC(=O)[C@H](N)c3ccccc3)[C@H]2SC1 [CEPHALEXIN ANHYDROUS]
Daq [4]: 7 ×10⁻⁶ cm2/s

O=C(N[C@H](CO)[C@H](O)c1ccc([N+](=O)[O-])cc1)C(Cl)Cl [CHLORAMPHENICOL]
bioavailability [1]: 82%

CN/C(=N/CCSCc1nc[nH]c1C)NC#N [CIMETIDINE]
bioavailability [1]: 60%
pKa [2]: 6.76
Daq [4]: 8.1 ×10⁻⁶ cm2/s
Papp [5]: 26 ×10⁻⁶ cm/s

CN1CC(=O)NC1=N [CREATININE]
bioavailability [1]: 80%
pKa [2]: 4.66
logP [3]: -3
Daq [4]: 11.6 ×10⁻⁶ cm2/s
Papp [5]: 29 ×10⁻⁶ cm/s

CNCCCN1c2ccccc2CCc2ccccc21 [DESIPRAMINE]
bioavailability [1]: 70%
Daq [4]: 7.9 ×10⁻⁶ cm2/s
Papp [5]: 440 ×10⁻⁶ cm/s

OC[C@H]1OC(O)[C@H](O)[C@@H](O)[C@@H]1O (stereo partly drawn) [DEXTROSE]
bioavailability [1]: 100%
logP ([3]; read-out: logP): -0.67
Daq [4]: 9.4 ×10⁻⁶ cm2/s
Papp [5]: 560 ×10⁻⁶ cm/s

O=C(O)Cc1ccccc1Nc1c(Cl)cccc1Cl [DICLOFENAC]
bioavailability [1]: 54%

C[C@H]1O[C@@H](O[C@H]2[C@@H](O)C[C@H](O[C@H]3[C@@H](O)C[C@H](O[C@H]4CC[C@@]5(C)[C@H](CC[C@@H]6[C@@H]5C[C@@H](O)[C@]5(C)[C@@H](C7=CC(=O)OC7)CC[C@]65O)C4)O[C@@H]3C)O[C@@H]2C)C[C@H](O)[C@@H]1O [DIGOXIN]
bioavailability [1]: 70%

C[C@H](N[C@@H](CCc1ccccc1)C(=O)O)C(=O)N1CCC[C@H]1C(=O)O [ENALAPRILAT ANHYDROUS]
bioavailability [1]: 8%
pKa [2]: 3.2
Daq [4]: 7 ×10⁻⁶ cm2/s
Papp [5]: 10 ×10⁻⁶ cm/s

COc1cc([C@@H]2c3cc4c(cc3[C@@H](O[C@@H]3O[C@@H]5CO[C@@H](C)O[C@H]5[C@H](O)[C@H]3O)[C@H]3COC(=O)[C@H]23)OCO4)cc(OC)c1O [ETOPOSIDE]
bioavailability [1]: 52%

O=C1OC2(c3ccc(O)cc3Oc3cc(O)ccc32)c2ccccc21 [FLUORESCEIN]
bioavailability [1]: 99%

CC(C)n1c(/C=C/C(O)CC(O)CC(=O)O)c(-c2ccc(F)cc2)c2ccccc21 (stereo not drawn) [FLUVASTATIN]
bioavailability [1]: 95%
Daq [4]: 6.5 ×10⁻⁶ cm2/s
Papp [5]: 238 ×10⁻⁶ cm/s

NS(=O)(=O)c1cc(C(=O)O)c(NCc2ccco2)cc1Cl [FUROSEMIDE]
Daq [4]: 7.1 ×10⁻⁶ cm2/s

COC1=CC(=O)C[C@@H](C)[C@]12Oc1c(Cl)c(OC)cc(OC)c1C2=O [GRISEOFULVIN]
bioavailability [1]: 95%
Daq [4]: 6.9 ×10⁻⁶ cm2/s
Papp [5]: 114 ×10⁻⁶ cm/s

NS(=O)(=O)c1cc2c(cc1Cl)NCNS2(=O)=O [HYDROCHLOROTHIAZIDE]
bioavailability [1]: 55%
logP ([3]; read-out: logP): -0.03
Daq [4]: 7.5 ×10⁻⁶ cm2/s
Papp [5]: 4 ×10⁻⁶ cm/s

CC(C)Cc1ccc(C(C)C(=O)O)cc1 (stereo not drawn) [IBUPROFEN]
bioavailability [1]: 85%

COc1ccc2c(c1)c(CC(=O)O)c(C)n2C(=O)c1ccc(Cl)cc1 [INDOMETHACIN]
bioavailability [1]: 99%

N=C(N)NCCCNC(=O)[C@@H]1CCCCN1C(=O)[C@@H](CC1CCCCC1)NCC(=O)O [INOGATRAN]
bioavailability [1]: 5%
pKa [2]: 1.6
logP ([3]; read-out: logP): -0.6

Cc1cc(NC(=O)C2=C(O)c3ccccc3S(=O)(=O)N2C)no1 [ISOXICAM]
bioavailability [1]: 100%

CC(C(=O)O)c1cccc(C(=O)c2ccccc2)c1 (stereo not drawn) [KETOPROFEN]
logP ([3]; read-out: logP): 3.16
Daq [4]: 8 ×10⁻⁶ cm2/s
Papp [5]: 840 ×10⁻⁶ cm/s

CC(C)C[C@H](N)C(=O)O [LEUCINE]
bioavailability [1]: 100%
pKa [2]: 2.38
Daq [4]: 10.9 ×10⁻⁶ cm2/s
Papp [5]: 620 ×10⁻⁶ cm/s

N[C@@H](Cc1ccc(O)c(O)c1)C(=O)O [LEVODOPA]
bioavailability [1]: 100%
pKa [2]: 2.21
logP ([3]; read-out: logP): -3
Daq [4]: 9 ×10⁻⁶ cm2/s
Papp [5]: 340 ×10⁻⁶ cm/s

CCC[C@@H]1C[C@@H](C(=O)N[C@@H]([C@H]2O[C@H](SC)[C@H](O)[C@@H](O)[C@H]2O)[C@@H](C)O)N(C)C1 [LINCOMYCIN]
bioavailability [1]: 25%

NCCCC[C@H](N[C@@H](CCc1ccccc1)C(=O)O)C(=O)N1CCC[C@H]1C(=O)O [LISINOPRIL ANHYDROUS]
bioavailability [1]: 27%
pKa [2]: 3.16
logP ([3]; read-out: logP): -2.86

CCCCc1nc(Cl)c(CO)n1Cc1ccc(-c2ccccc2-c2nn[nH]n2)cc1 [LOSARTAN]
bioavailability [1]: 50%
pKa [2]: 2.95
logP ([3]; read-out: logP): 3.74
Daq [4]: 6.4 ×10⁻⁶ cm2/s
Papp [5]: 114 ×10⁻⁶ cm/s

C[C@](N)(Cc1ccc(O)c(O)c1)C(=O)O [METHYLDOPA]
bioavailability [1]: 26%
pKa [2]: 2.21
logP ([3]; read-out: logP): -3
Daq [4]: 8.8 ×10⁻⁶ cm2/s
Papp [5]: 10 ×10⁻⁶ cm/s

COCCc1ccc(OCC(O)CNC(C)C)cc1 (stereo not drawn) [METOPROLOL]
Daq [4]: 7.9 ×10⁻⁶ cm2/s
Papp [5]: 90 ×10⁻⁶ cm/s

CC(C)(C)NCC(O)COc1cccc2c1CC(O)C(O)C2 (stereo not drawn) [NADOLOL]
bioavailability [1]: 30%

COc1ccc2cc([C@H](C)C(=O)O)ccc2c1 [NAPROXEN]
Daq [4]: 8.4 ×10⁻⁶ cm2/s

CC1COc2c(N3CCN(C)CC3)c(F)cc3c(=O)c(C(=O)O)cn1c23 (stereo not drawn) [OFLOXACIN]
bioavailability [1]: 90%

N[C@@H](Cc1ccccc1)C(=O)O [PHENYLALANINE]
bioavailability [1]: 100%
pKa [2]: 2.2
Daq [4]: 9.8 ×10⁻⁶ cm2/s
Papp [5]: 336 ×10⁻⁶ cm/s

CN1C(C(=O)Nc2ccccn2)=C(O)c2ccccc2S1(=O)=O [PIROXICAM]
bioavailability [1]: 100%
Daq [4]: 7.1 ×10⁻⁶ cm2/s
Papp [5]: 665 ×10⁻⁶ cm/s

CC(C)NCC(O)COc1cccc2ccccc12 (stereo not drawn) [PROPRANOLOL]
bioavailability [1]: 100%
Daq [4]: 8 ×10⁻⁶ cm2/s

CCCc1cc(=O)[nH]c(=S)[nH]1 [PROPYLTHIOURACIL]
bioavailability [1]: 85%

CNC(=C[N+](=O)[O-])NCCSCc1ccc(CN(C)C)o1 [RANITIDINE]
bioavailability [1]: 50%
pKa [2]: 2.11
Daq [4]: 7.3 ×10⁻⁶ cm2/s
Papp [5]: 27.3 ×10⁻⁶ cm/s

O=C(O)c1ccccc1O [SALICYLIC ACID]
bioavailability [1]: 100%
Daq [4]: 10.6 ×10⁻⁶ cm2/s
Papp [5]: 267 ×10⁻⁶ cm/s

CC(C)NCC(O)c1ccc(NS(C)(=O)=O)cc1 (stereo not drawn) [SOTALOL]
bioavailability [1]: 95%

CC(C)(C)NCC(O)c1cc(O)cc(O)c1 (stereo not drawn) [TERBUTALINE]
pKa [2]: 8.67
logP ([3]; read-out: logP): -0.08
Daq [4]: 8.5 ×10⁻⁶ cm2/s
Papp [5]: 30 ×10⁻⁶ cm/s

CC1=C(/C=C/C(C)=C/C=C/C(C)=C/C(=O)O)C(C)(C)CCC1 [TRETINOIN]
bioavailability [1]: 90%
Daq [4]: 7.5 ×10⁻⁶ cm2/s
Papp [5]: 99 ×10⁻⁶ cm/s

COc1cc(Cc2cnc(N)nc2N)cc(OC)c1OC [TRIMETHOPRIM]
bioavailability [1]: 98%

NC(N)=O [UREA]
logP ([3]; read-out: logP): -1.64
Daq [4]: 15.5 ×10⁻⁶ cm2/s
Papp [5]: 140 ×10⁻⁶ cm/s

CC(C)[C@H](N)C(=O)OCCOCn1cnc2c(=O)[nH]c(N)nc21 [VALACYCLOVIR]
bioavailability [1]: 80%
pKa [2]: 7.4
logP ([3]; read-out: logP): -1.04
Daq [4]: 7.2 ×10⁻⁶ cm2/s
Papp [5]: 166 ×10⁻⁶ cm/s

O [WATER]
Daq [4]: 26.7 ×10⁻⁶ cm2/s
Papp [5]: 140 ×10⁻⁶ cm/s
